Experimental data taken from PubChem BioAssay (NCI).
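Tested at 5 concentrations; 48 h exposure; 96-well plates; endpoints linearly interpolated, else capped at highest concentration. The concentration for full growth arrest is given as TGI.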

How the values were obtained:
Experiment in all cases: growth of human tumour cells (NCI), 48 h
DMS 114 small cell lung = test system: DMS 114 small cell lung
RXF-631 renal = test system: RXF-631 renal
UACC-62 melanoma = test system: UACC-62 melanoma
SK-OV-3 ovarian = test system: SK-OV-3 ovarian
NCI-H23 lung = test system: NCI-H23 lung
CCRF-CEM leukemia = test system: CCRF-CEM leukemia
HOP-62 NSCLC = test system: HOP-62 NSCLC
MOLT-4 leukemia = test system: MOLT-4 leukemia
M19-MEL melanoma = test system: M19-MEL melanoma
SF-268 CNS = test system: SF-268 CNS
SNB-78 CNS = test system: SNB-78 CNS
SNB-75 CNS = test system: SNB-75 CNS
CAKI-1 renal = test system: CAKI-1 renal
HCC-2998 colon = test system: HCC-2998 colon
HL-60(TB) leukemia = test system: HL-60(TB) leukemia
RPMI-8226 leukemia = test system: RPMI-8226 leukemia
OVCAR-4 ovarian = test system: OVCAR-4 ovarian
DLD-1 colon = test system: DLD-1 colon
K-562 leukemia = test system: K-562 leukemia
SF-539 CNS = test system: SF-539 CNS
SK-MEL-28 melanoma = test system: SK-MEL-28 melanoma
HOP-92 NSCLC = test system: HOP-92 NSCLC
MALME-3M melanoma = test system: MALME-3M melanoma
COLO 205 colon = test system: COLO 205 colon
LXFL 529 NSCLC = test system: LXFL 529 NSCLC
NCI-H226 lung = test system: NCI-H226 lung
HCT-116 colon = test system: HCT-116 colon
UO-31 renal = test system: UO-31 renal
IGROV1 ovarian = test system: IGROV1 ovarian
NCI-H522 lung = test system: NCI-H522 lung
M14 melanoma = test system: M14 melanoma
786-0 renal = test system: 786-0 renal
DMS 273 small cell lung = test system: DMS 273 small cell lung
SR leukemia = test system: SR leukemia
SK-MEL-2 melanoma = test system: SK-MEL-2 melanoma
XF 498 CNS = test system: XF 498 CNS
KM12 colon = test system: KM12 colon
NCI-H460 lung = test system: NCI-H460 lung
LOX IMVI melanoma = test system: LOX IMVI melanoma
OVCAR-5 ovarian = test system: OVCAR-5 ovarian
EKVX NSCLC = test system: EKVX NSCLC
SN12C renal = test system: SN12C renal
TK-10 renal = test system: TK-10 renal
ACHN renal = test system: ACHN renal
U251 CNS = test system: U251 CNS
SW-620 colon = test system: SW-620 colon
A549 NSCLC = test system: A549 NSCLC
SF-295 CNS = test system: SF-295 CNS
HT29 colon = test system: HT29 colon
UACC-257 melanoma = test system: UACC-257 melanoma
SNB-19 CNS = test system: SNB-19 CNS
KM20L2 colon = test system: KM20L2 colon
A498 renal = test system: A498 renal
SK-MEL-5 melanoma = test system: SK-MEL-5 melanoma
HCT-15 colon = test system: HCT-15 colon
RXF 393 renal = test system: RXF 393 renal
OVCAR-3 ovarian = test system: OVCAR-3 ovarian
HOP-18 NSCLC = test system: HOP-18 NSCLC
OVCAR-8 ovarian = test system: OVCAR-8 ovarian

Cc1c2n(c3ccccc13)CC1CON(C)C21 (stereo not drawn)
TGI (DMS 114 small cell lung): > 100 µM
TGI (RXF-631 renal): > 100 µM
TGI (UACC-62 melanoma): > 100 µM
TGI (SK-OV-3 ovarian): > 100 µM
TGI (NCI-H23 lung): > 100 µM
TGI (CCRF-CEM leukemia): > 100 µM
TGI (HOP-62 NSCLC): > 100 µM
TGI (MOLT-4 leukemia): > 100 µM
TGI (M19-MEL melanoma): > 100 µM
TGI (SF-268 CNS): > 100 µM
TGI (SNB-78 CNS): > 100 µM
TGI (SNB-75 CNS): > 100 µM
TGI (CAKI-1 renal): > 100 µM
TGI (HCC-2998 colon): > 100 µM
TGI (HL-60(TB) leukemia): > 100 µM
TGI (RPMI-8226 leukemia): > 100 µM
TGI (OVCAR-4 ovarian): > 100 µM
TGI (DLD-1 colon): > 100 µM
TGI (K-562 leukemia): > 100 µM
TGI (SF-539 CNS): > 100 µM
TGI (SK-MEL-28 melanoma): > 100 µM
TGI (HOP-92 NSCLC): > 100 µM
TGI (MALME-3M melanoma): > 100 µM
TGI (COLO 205 colon): > 100 µM
TGI (LXFL 529 NSCLC): > 100 µM
TGI (NCI-H226 lung): > 100 µM
TGI (HCT-116 colon): > 100 µM
TGI (UO-31 renal): > 100 µM
TGI (IGROV1 ovarian): > 100 µM
TGI (NCI-H522 lung): > 100 µM
TGI (M14 melanoma): > 100 µM
TGI (786-0 renal): > 100 µM
TGI (DMS 273 small cell lung): > 100 µM
TGI (SR leukemia): > 100 µM
TGI (SK-MEL-2 melanoma): > 100 µM

CC(C(=O)c1ccc(Cl)cc1)C1OC(=O)C(Cl)=C1Cl (stereo not drawn)
TGI (DMS 114 small cell lung): 76.7 µM
TGI (XF 498 CNS): 84.1 µM
TGI (RXF-631 renal): > 100 µM
TGI (UACC-62 melanoma): 46.7 µM
TGI (KM12 colon): > 100 µM
TGI (NCI-H460 lung): > 100 µM
TGI (LOX IMVI melanoma): 47.3 µM
TGI (SK-OV-3 ovarian): > 100 µM
TGI (OVCAR-5 ovarian): > 100 µM
TGI (EKVX NSCLC): > 100 µM
TGI (SN12C renal): 56.3 µM
TGI (TK-10 renal): > 100 µM
TGI (ACHN renal): > 100 µM
TGI (NCI-H23 lung): 71.1 µM
TGI (U251 CNS): > 100 µM
TGI (SW-620 colon): > 100 µM
TGI (CCRF-CEM leukemia): 41.4 µM
TGI (HOP-62 NSCLC): > 100 µM
TGI (A549 NSCLC): > 100 µM
TGI (MOLT-4 leukemia): 64 µM
TGI (M19-MEL melanoma): 52.3 µM
TGI (SF-268 CNS): > 100 µM
TGI (SF-295 CNS): > 100 µM
TGI (HT29 colon): > 100 µM
TGI (SNB-75 CNS): > 100 µM
TGI (UACC-257 melanoma): > 100 µM
TGI (SNB-19 CNS): > 100 µM
TGI (KM20L2 colon): > 100 µM
TGI (HCC-2998 colon): 63.5 µM
TGI (A498 renal): > 100 µM
TGI (HL-60(TB) leukemia): 47.6 µM
TGI (SK-MEL-5 melanoma): > 100 µM
TGI (RPMI-8226 leukemia): 70.8 µM
TGI (OVCAR-4 ovarian): 64.6 µM
TGI (HCT-15 colon): 50.5 µM
TGI (DLD-1 colon): 49.9 µM
TGI (K-562 leukemia): 58.8 µM
TGI (RXF 393 renal): 35.4 µM
TGI (SF-539 CNS): 70.9 µM
TGI (SK-MEL-28 melanoma): 57.1 µM
TGI (MALME-3M melanoma): 41.7 µM
TGI (COLO 205 colon): 51 µM
TGI (LXFL 529 NSCLC): 40.6 µM
TGI (NCI-H226 lung): > 100 µM
TGI (OVCAR-3 ovarian): 71.9 µM
TGI (HOP-18 NSCLC): > 100 µM
TGI (UO-31 renal): > 100 µM
TGI (OVCAR-8 ovarian): > 100 µM
TGI (IGROV1 ovarian): > 100 µM
TGI (NCI-H522 lung): 37.7 µM
TGI (M14 melanoma): > 100 µM
TGI (786-0 renal): 36 µM
TGI (SK-MEL-2 melanoma): 48.9 µM
